Tests used:
[1] = Single oral dose PK in healthy human volunteers (Table A); format: in vivo
Method: Total oral doses of AZD0328 in the range 0.025-0.68 mg produced mean plasma concentrations of 0.6-15 nM, consistent with the range of plasma concentrations found to be associated with improved performance in the spatial delayed response test in monkeys. Total oral doses of AZD0328 in the range 0.005-2 mg produced mean plasma concentrations of 0.17-43.9 nM, within the range of plasma concentrations found to be associated with improved performance in rodent models.

[2] = test system: fimbria formix transected rats; test: Fimbria formix transected rat model (DNMTP, DRL, LTP); format: in vivo
Method: Previously, AZD0328 has been described, for example in U.S. Pat. No. 6,110,914 and counterpart worldwide patents, as an α7 agonist. In a widely used model of cognitive dysfunction using fimbria formix transected rats challenged to perform Delayed Non-Match to Position or Differential Reinforcement of Low Rates of Responding tasks, agonistic doses of 1 mg per kg and higher of AZD0328 effectively compensated for the acetylcholine deficiencies of these animals. These doses were associated with plasma concentrations at which AZD0328 acts as an agonist at α7 receptors in vitro. However, lower concentrations were ineffective in these model systems.
The potency of AZD0328 to activate α7 receptors in these in vitro preparations was in the micromolar range. […] For example, 1 or 3 mg/kg of AZD0328 reversed deficits in hippocampal long-term potentiation or response accuracy in two different cognitive tests in fimbria-formix lesioned animals (delayed non-match to position and differential reinforcement of low rates of responding). The minimum effective dose of 1 mg per kg necessary to reverse deficits in the rat fimbria formix model produced plasma concentrations in the range 0.29-1.4 μM in the rat, consistent with the range of concentrations required to activate α7 responses in vitro.

[3] = test system: rats; test: Modified Irwin screen; format: in vivo; details: Wistar rat, oral gavage, up to 4 h postdose
Method: The effects of AZD0328 were assessed in the modified Irwin screen, a behavioural, neurological and overt toxicity scoring protocol battery designed to detect a wide range of side effects (Table 3). The findings in the Irwin screen serve as a gross indication of CNS-mediated effects.

[4] = test system: rats; test: Spontaneous locomotor activity; format: in vivo; details: Wistar rat, oral gavage, 90 min session
Method: AZD0328 was investigated for possible effects on spontaneous locomotor activity in rats (n=6/group)(Table 3). Animals were individually placed in locomotor activity boxes for a 90 min test session. Movements within the box were measured by infrared beams, and activity was assessed as ambulatory counts, stereotypic counts, vertical counts, and resting time.

[5] = test system: marmoset monkeys; test: Behavioral effects / tolerability; format: in vivo; details: im, first five minutes after administration
Method: Prior to testing its effects on cognitive task performance in marmoset monkeys, the tolerability of AZD0328 was assessed. (Table 3). Behaviours noted in individual marmosets during the five minutes immediately following drug administration were salivation, vomiting, scratching, defecation and increased activity.

[6] = Cardiovascular/respiratory telemetry and whole body plethysmography; format: in vivo, rat; details: plasma; rat, oral, whole-body plethysmography; read-out: NOAEL on ventilatory function / respiration, total Cmax
Method: (§1) Effects of single oral doses of AZD0328 on mean, systolic and diastolic arterial blood pressures, heart rate, body temperature, locomotor activity and respiratory parameters were evaluated in rats by combining whole body plethysmography with telemetry (Table 3). […] The degree of hypertension, however, was similar at the 3 highest doses, which partly can be explained by the high individual variation in plasma exposure at each dose level. The effect on heart rate was, on the other hand, dose-related.
(§2) Effects of AZD0328 on respiratory function were evaluated in the combined cardiovascular/respiratory study in rats (Table 3). Respiratory rate, tidal volume, inspiratory and expiratory times, and peak inspiratory and expiratory flows were measured […].

[7] = test system: rats; test: as above; format: in vivo, rat
Method: as §1, §2

[8] = [14C]-AZD0328 QWBA / mass balance; format: in vivo, rat
Method: In the mass balance study conducted in fed rats, a Tmax of 0.5 h to 1 h was observed following single and multiple oral doses (solution). The bioavailability of AZD0328 (total radioactivity) in this study was >90%. […] Generally speaking, the elimination was complete within the 24-hour interval at the dose levels tested.
AZD0328 is a low protein binding molecule across species including human (<15%) across the concentration range 21.6 to 21,630 ng/mL (0.1 to 100 μM). In most species, the binding was concentration and gender independent. […] [^14C]-AZD0328-derived radioactivity was rapidly distributed to the organs and tissues with high levels of radioactivity associated with the contents of the GI tract and the major excretion organs, including kidney and liver. The radioactivity declined rapidly and by 168 h postdose radioactivity levels were not detectable in most tissues, with the exception of a few ocular tissues and nasal turbinates. […] Notable association of [^14C]-AZD0328-related radioactivity with the melanin-containing tissues was observed, with measurable radioactivity still present in the ocular tissue at 216 h postdate. [^14C]-AZD0328-derived radioactivity crossed the placenta.
Pharmacokinetics and mass balance of [^14C]-AZD0328 were investigated in rats. The excretion of [^14C]-AZD0328-derived radioactivity in rats was mainly through the kidney. Over the course of the study, radioactivity recovered in urine and feces accounted for approximately 85% and 8%, respectively.

[9] = Predicted human PK / exposure (allometric scaling of rat and monkey data)
Method: The 50% bioavailability of AZD0328 in human was conservatively selected based on the observations from rat, dog and monkey.
Given the findings in the 1 month repeated dose toxicology studies in the rats, it is reasonable to set human systemic exposure limits following single dose administration equal to the exposure observed at NOAEL for renal tubule vacuolation. The corresponding human equivalent dose, based on the FDA guidance (via allometric scaling of body surface area) is, 0.35 mg/kg. A dose of 0.03 mg/day is proposed as a starting dose.

[10] = single oral 0.025 mg, geometric mean
[11] = single oral 0.075 mg, geometric mean
[12] = single oral 0.23 mg, geometric mean
[13] = single oral 0.68 mg, geometric mean
[14] = single oral 1.35 mg, geometric mean
[15] = single oral 2 mg, geometric mean

## c1cnc2c(c1)C[C@@]1(CN3CCC1CC3)O2 [AZD0328, (R)-Spiro[1-azabicyclo[2.2.2]octane-3,2′(3′H)-furo[2,3-b]pyridine]]
[1]; single oral 0.005 mg, geometric mean (% CV)
  Cmax/Dose: 0.007 (24)
[1]; [10]
  AUC/Dose: 0.053
  CL/F: 19.0 L/h
  Cmax/Dose: 0.006
[1]; [11]
  AUC/Dose: 0.049
  Cmax/Dose: 0.006
[1]; [12]
  AUC/Dose: 0.061
  Cmax/Dose: 0.006
  t1/2: 6.7 h
[1]; [13]
  AUC/Dose: 0.046
  Cmax/Dose: 0.005
  t1/2: 6.0 h
[1]; [14]
  AUC/Dose: 0.054
  Cmax/Dose: 0.005
[1]; [15]
  AUC/Dose: 0.046
  CL/F: 22.0 L/h
  Cmax/Dose: 0.005
[2]
  Minimum effective dose: 1 mg per kg
[3]
  Dose with sedation: 129.8 mg/kg up to 4 h postdose.
[4]
  Dose without effect on locomotor activity: up to 129.8 mg/kg
[5]
  Doses with salivation, vomiting, scratching, defecation and increased activity: administration with 0.03-3 mg/kg
[6]
  Cmax: ≤ 31.2 µM
[7]; Wistar rat, oral gavage
  Dose with no CV effect: 1.1 mg/kg
[7]; conscious telemetered rat, oral
  Increase in blood pressure and heart rate: > 10%
[7]; rat, oral, any dose
  Locomotor activity or body temperature: μM. No effect on locomotor
[7]; telemetered Wistar rat, oral gavage, highest dose (total Cmax 31.2 μM)
  HR increase: 19%
[8]; female rat
  Absorbed (urinary radioactivity and AUC, oral versus iv): 95%
[8]; male rat
  Absorbed (urinary radioactivity and AUC, oral versus iv): 97%
[8]; rat
  Radioactivity recovered in feces: ~8%
  Radioactivity recovered in urine: approximately 85%
[9]
  Predicted free human therapeutic plasma level: 0.5 to 1.7 nM
[9]; NOAEL for renal tubule vacuolation
  Human equivalent dose of the rat NOAEL (allometric scaling of body surface area): 0.35 mg/kg
[9]; human
  Bioavailability in human, conservatively selected: 50%
